Experimental data: ChEMBL document CHEMBL1141099, “Discovery of N-(2,6-dimethylphenyl)-substituted semicarbazones as anticonvulsants: hybrid pharmacophore-based design” (2005)

Tests used:
Mus musculus [1] = test: Minimum dose required for anticonvulsant activity when given i.p., at 2 hr in mice upon subcutaneous strychnine seizure; assay type: functional
Rattus norvegicus [2] = test: Number of rats protected at a dose of 30 mg/Kg when given oral at 0.5 hr upon maximal electroshock seizure; Total number of rats = 4; assay type: functional
Mus musculus [3] = test: Post treatment activity score for CNS study using a actophotometer at a dose of 100 mg/Kg after 1 hr when given i.p., in mice (No. of animals 6); Control (24h before) 201
Mus musculus [4] = test: Minimum dose required for anticonvulsant activity when given i.p., at 0.5 hr in mice upon neurotoxicity seizure using rotarod test; assay type: functional
Rattus norvegicus [5] = test: Number of rats protected at a dose of 30 mg/Kg when given oral at 1 hr upon maximal electroshock seizure; Total number of rats = 4; assay type: functional
Rattus norvegicus [6] = test: Number of rats protected at a dose of 30 mg/Kg when given oral at 2 hr upon maximal electroshock seizure; Total number of rats = 4; assay type: functional
Rattus norvegicus [7] = test: Number of rats protected at a dose of 30 mg/Kg when given oral at 4 hr upon maximal electroshock seizure; Total number of rats = 4; assay type: functional
Mus musculus [8] = test: Minimum dose required for anticonvulsant activity when given i.p., at 0.5 hr in mice upon subcutaneous strychnine seizure; assay type: functional
Rattus norvegicus [9] = test: Number of rats protected at a dose of 30 mg/Kg when given oral at 0.25 hr upon maximal electroshock seizure; Total number of rats = 4; assay type: functional
Mus musculus [10] = test: Minimum dose required for anticonvulsant activity when given i.p., at 4 hr in mice upon maximal electroshock seizure; assay type: functional
Mus musculus [11] = test: Minimum dose required for anticonvulsant activity when given i.p., at 0.5 hr in mice upon maximal electroshock seizure; assay type: functional
Mus musculus [12] = test: Post treatment activity score for CNS study using a actophotometer at a dose of 100 mg/Kg after 0.5 hr when given i.p., in mice (No. of animals 6); Control (24h before) 201
Mus musculus [13] = test: Post treatment activity score for CNS study using a actophotometer at a dose of 100 mg/Kg after 0.5 hr when given i.p., in mice (No. of animals 6); Control (24h before) 258
Mus musculus [14] = test: Post treatment activity score for CNS study using a actophotometer at a dose of 100 mg/Kg after 1 hr when given i.p., in mice (No. of animals 6); Control (24h before) 258
Mus musculus [15] = test: Post treatment immobility time for CNS study using Porsolt's swimpool test at a dose of 100 mg/Kg after 1 hr when given i.p., in mice (No. of animals 6); Control (24h before) 184
Mus musculus [16] = test: Minimum dose required for anticonvulsant activity when given i.p., at 0.5 hr in mice upon subcutaneous pentylenetetrazole seizure; assay type: functional
Rattus norvegicus [17] = test: Effective dose required for anticonvulsant activity when given orally at 4 h in rat upon maximal electroshock seizure; assay type: functional; conditions: po
Rattus norvegicus [18] = species on record: Rattus norvegicus; test: Protective index between effective dose and toxic dose in rat; assay type: functional
Rattus norvegicus [19] = test: Enzymatic activity to assess the increase in level of SGPT at a dose of 30 mg/Kg for 14 days when given p.o., in 6 rats; Control 45.0; assay type: functional
Mus musculus [20] = test: Minimum dose required for anticonvulsant activity when given i.p., in mice upon neurotoxicity seizure using rotarod test
Rattus norvegicus [21] = test: Enzymatic activity to assess the increase in level of SGOT at a dose of 30 mg/Kg for 14 days when given p.o., in 6 rats; Control 73.1; assay type: functional
Rattus norvegicus [22] = test: Toxic dose observed for anticonvulsant activity when given orally at 4 h in rat upon neurotoxicity seizure; assay type: functional; conditions: po
Mus musculus [23] = test: Post treatment activity score for CNS study using a actophotometer at a dose of 100 mg/Kg after 0.5 hr when given i.p., in mice (No. of animals 6); Control (24h before) 372
Mus musculus [24] = test: Post treatment activity score for CNS study using a actophotometer at a dose of 100 mg/Kg after 1 h when given i.p., in mice (No. of animals 6); Control (24h before) 372
Rattus norvegicus [25] = species on record: Rattus norvegicus; test: Ex vitro percentage inhibition activity against GABA-T enzyme at a concentration of 1.25 uM after 6 h; assay type: functional
[26] = molecular target: 4-aminobutyrate aminotransferase, mitochondrial (Rattus norvegicus) (UniProt P50554); test: In vitro percentage inhibition activity against GABA-T enzyme at a concentration of 2.5 uM after 6 h
Sequence of 4-aminobutyrate aminotransferase, mitochondrial (Rattus norvegicus) (P50554 28-500 limits assumed): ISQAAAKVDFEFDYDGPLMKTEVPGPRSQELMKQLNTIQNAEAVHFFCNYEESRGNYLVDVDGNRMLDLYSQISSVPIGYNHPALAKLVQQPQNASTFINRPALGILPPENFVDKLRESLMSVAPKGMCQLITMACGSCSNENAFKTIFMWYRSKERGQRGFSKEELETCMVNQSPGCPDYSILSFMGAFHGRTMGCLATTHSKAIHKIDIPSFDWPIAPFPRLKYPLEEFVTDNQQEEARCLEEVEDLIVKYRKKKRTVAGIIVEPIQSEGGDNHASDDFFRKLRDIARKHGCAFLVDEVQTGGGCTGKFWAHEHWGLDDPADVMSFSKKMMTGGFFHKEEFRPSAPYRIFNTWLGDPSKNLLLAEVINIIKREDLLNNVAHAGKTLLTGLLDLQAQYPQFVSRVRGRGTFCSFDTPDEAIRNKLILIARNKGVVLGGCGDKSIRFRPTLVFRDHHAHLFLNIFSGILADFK

Rattus norvegicus [27] = test: Effect on GABA level in rat whole brain concentration after 2 hr post-treatment at a dose of 100 mg/Kg when given i.p.; Control 48.4; assay type: functional
[28] = molecular target: 4-aminobutyrate aminotransferase, mitochondrial (Rattus norvegicus) (UniProt P50554); test: In vitro percentage inhibition activity against GABA-T enzyme at a concentration of 2.5 uM after 4.5 h
Rattus norvegicus [29] = test: Effect on GABA level in rat whole brain concentration after 7 days post-treatment at a dose of 30 mg/Kg when given orally; Control 50.5; assay type: functional
Rattus norvegicus [30] = species on record: Rattus norvegicus; test: Ex vitro percentage inhibition activity against GABA-T enzyme at a concentration of 1.25 uM after 3 h; assay type: functional
Mus musculus [31] = test: Post treatment activity score for CNS study using a actophotometer at a dose of 100 mg/Kg after 1 hr when given i.p., in mice (No. of animals 6); Control (24h before) 260
Mus musculus [32] = test: Mean sleeping time evaluated for CNS study using the pentobarbital-induced narcosis model at a dose of 100 mg/Kg when given i.p., in mice (No. of animals 6)
[33] = molecular target: 4-aminobutyrate aminotransferase, mitochondrial (Rattus norvegicus) (UniProt P50554); test: In vitro percentage inhibition activity against GABA-T enzyme at a concentration of 2.5 uM after 3 h
Mus musculus [34] = test: Post treatment immobility time for CNS study using Porsolt's swimpool test at a dose of 100 mg/Kg after 1 h when given i.p., in mice (No. of animals 6); Control (24h before) 164
Mus musculus [35] = test: Post treatment activity score for CNS study using a actophotometer at a dose of 100 mg/Kg after 0.5 hr when given i.p., in mice (No. of animals 6); Control (24h before) 260
Rattus norvegicus [36] = test: Toxic dose observed for anticonvulsant activity when given i.p., at 0.25 hr in rat upon neurotoxicity seizure; assay type: functional; conditions: ip
Rattus norvegicus [37] = species on record: Rattus norvegicus; test: Ex vitro percentage inhibition activity against GABA-T enzyme at a concentration of 1.25 uM after 4.5 h; assay type: functional
Rattus norvegicus [38] = test: Effective dose required for anticonvulsant activity when given i.p., at 0.25 hr in rat upon maximal electroshock seizure; assay type: functional; conditions: ip
Rattus norvegicus [39] = test: Toxic dose observed for anticonvulsant activity when given orally at 2 hr in rat upon neurotoxicity seizure; assay type: functional; conditions: po
Mus musculus [40] = test: Post treatment activity score for CNS study using a actophotometer at a dose of 100 mg/Kg after 0.5 hr when given i.p., in mice (No. of animals 6); Control (24h before) 214
Mus musculus [41] = test: Post treatment immobility time for CNS study using Porsolt's swimpool test at a dose of 100 mg/Kg after 1 hr when given i.p., in mice (No. of animals 6); Control (24h before) 159
Rattus norvegicus [42] = test: Effective dose required for anticonvulsant activity when given orally at 2 h in rat upon maximal electroshock seizure; assay type: functional; conditions: po
Mus musculus [43] = test: Post treatment activity score for CNS study using a actophotometer at a dose of 100 mg/Kg after 1 h when given i.p., in mice (No. of animals 6); Control (24h before) 214
Mus musculus [44] = test: Post treatment activity score for CNS study using a actophotometer at a dose of 100 mg/Kg after 1 hr when given i.p., in mice (No. of animals 6); Control (24h before) 224
Mus musculus [45] = test: Post treatment immobility time for CNS study using Porsolt's swimpool test at a dose of 100 mg/Kg after 1 hr when given i.p., in mice (No. of animals 6); Control (24h before) 176
Mus musculus [46] = test: Post treatment activity score for CNS study using a actophotometer at a dose of 100 mg/Kg after 0.5 hr when given i.p., in mice (No. of animals 6); Control (24h before) 224
Mus musculus [47] = test: Post treatment activity score for CNS study using a actophotometer at a dose of 100 mg/Kg after 0.5 hr when given i.p., in mice (No. of animals 6); Control (24h before) 280
Mus musculus [48] = test: Post treatment activity score for CNS study using a actophotometer at a dose of 100 mg/Kg after 1 hr when given i.p., in mice (No. of animals 6); Control (24h before) 280
Mus musculus [49] = test: Post treatment activity score for CNS study using a actophotometer at a dose of 100 mg/Kg after 1 hr when given i.p., in mice (No. of animals 6); Control (24h before) 270
Mus musculus [50] = test: Post treatment activity score for CNS study using a actophotometer at a dose of 100 mg/Kg after 0.5 hr when given i.p., in mice (No. of animals 6); Control (24h before) 270

| SMILES | STY seizure (Mus musculus [1]) [mg/kg] | Activity (Rattus norvegicus [2]) | NT (Mus musculus [4]) [mg/kg] | Activity (Rattus norvegicus [5]) | Activity (Rattus norvegicus [6]) | Activity (Rattus norvegicus [7]) | STY seizure (Mus musculus [8]) [mg/kg] | Activity (Rattus norvegicus [9]) | MES (Mus musculus [10]) [mg/kg] | MES (Mus musculus [11]) [mg/kg] | PTZ seizure (Mus musculus [16]) [mg/kg] | PI (Rattus norvegicus [18]) | also measured |
| --- | --- | --- | --- | --- | --- | --- | --- | --- | --- | --- | --- | --- | --- |
| Cc1cccc(C)c1NC(=O)/N=N/c1c(O)[nH]c2ccc(Br)cc12 | 100 | 1 | 300 | 0 | 2 | 0 | 30 | 1 | 300 | 100 |  |  | Activity (Mus musculus [3]): 176; Activity (Mus musculus [12]): 172 |
| C/C(=N\NC(=O)Nc1c(C)cccc1C)c1ccc(N)cc1 | 100 | 3 | 300 | 4 | 2 | 4 | 30 | 1 | 300 | 100 | 300 | >15.9 | Activity (Mus musculus [13]): 202; Activity (Mus musculus [14]): 187; Activity (Mus musculus [15]): 204; ED50 (Rattus norvegicus [17]): 29.1 mg/kg; SGPT activity (Rattus norvegicus [19]): 44.6 units/mL; NT (Mus musculus [20]): 300 mg/kg; SGOT activity (Rattus norvegicus [21]): 71.3 units/mL; TD50 (Rattus norvegicus [22]): > 464 mg/kg |
| Cc1ccc2[nH]c(O)c(/N=N/C(=O)Nc3c(C)cccc3C)c2c1 | 100 | 1 | 300 | 3 | 3 | 3 | 30 | 1 | 300 | 100 | 300 |  | Activity (Mus musculus [23]): 355; Activity (Mus musculus [24]): 368 |
| C/C(=N\NC(=O)Nc1c(C)cccc1C)c1ccc(O)cc1 | 100 | 2 |  | 4 | 3 | 4 | 30 | 1 | 300 | 100 | 300 | >1.6 | Inhibition (Rattus norvegicus [25]): 60%; inhibition [26]: 55%; Activity (Rattus norvegicus [27]): 81.1 ug/100mg of tissue; inhibition [28]: 0%; Activity (Rattus norvegicus [29]): 93.6 ug/100mg of tissue; Inhibition (Rattus norvegicus [30]): 0%; Activity (Mus musculus [31]): 198; Time (Mus musculus [32]): 108 min; inhibition [33]: 0%; Activity (Mus musculus [34]): 198; Activity (Mus musculus [35]): 205; TD50 (Rattus norvegicus [36]): > 68 mg/kg; Inhibition (Rattus norvegicus [37]): 25%; ED50 (Rattus norvegicus [38]): 41.6 mg/kg |
| CC(=O)C/C(C)=N\NC(=O)Nc1c(C)cccc1C | 300 | 4 | 300 | 2 | 4 | 4 | 100 | 2 | 300 | 100 | 300 | >10.8 | TD50 (Rattus norvegicus [39]): > 216 mg/kg; NT (Mus musculus [20]): 300 mg/kg; Activity (Mus musculus [40]): 127; Activity (Mus musculus [41]): 228; ED50 (Rattus norvegicus [42]): 19.8 mg/kg; Activity (Mus musculus [43]): 144 |
| CC/C(C)=N\NC(=O)Nc1c(C)cccc1C | 100 | 4 |  | 4 | 3 | 3 | 30 | 1 | 300 | 100 | 300 | >17.2 | Activity (Mus musculus [44]): 195; Activity (Mus musculus [45]): 199; Time (Mus musculus [32]): 61 min; ED50 (Rattus norvegicus [17]): 29 mg/kg; SGPT activity (Rattus norvegicus [19]): 49.3 units/mL; SGOT activity (Rattus norvegicus [21]): 79.6 units/mL; TD50 (Rattus norvegicus [22]): > 500 mg/kg; Activity (Mus musculus [46]): 188 |
| Cc1cccc(C)c1NC(=O)/N=N/c1c(O)[nH]c2ccc(Cl)cc12 | 100 | 1 | 300 | 0 | 1 | 1 | 30 | 1 | 300 | 100 | 300 |  | Activity (Mus musculus [47]): 263; Activity (Mus musculus [48]): 267 |
| Cc1cccc(C)c1NC(=O)/N=N/c1c(O)[nH]c2ccccc12 | 100 | 2 | 300 | 1 | 1 | 3 | 30 | 2 | 300 | 100 |  |  | Activity (Mus musculus [49]): 217; Activity (Mus musculus [50]): 224 |
